From PubChem BioAssay (NCI)
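1) Cells in 96-well plates. 2) Compound, 48 h, 5 concentrations. 3) Linear interpolation between surrounding doses. 4) Unreached endpoint = highest concentration. At the GI50, growth is halved. Definition used: TGI = concentration required for complete inhibition of growth.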

How the values were obtained:
Assay in all cases: growth of human tumour cells (NCI), 48 h
[1] = system: K-562 leukemia
[2] = system: COLO 205 colon
[3] = system: UACC-62 melanoma
[4] = system: MDA-MB-468 breast
[5] = system: UO-31 renal
[6] = system: CAKI-1 renal
[7] = system: HL-60(TB) leukemia
[8] = system: RXF 393 renal
[9] = system: M14 melanoma
[10] = system: HCT-116 colon
[11] = system: MOLT-4 leukemia
[12] = system: SNB-19 CNS
[13] = system: MDA-MB-435
[14] = system: DU-145 prostate
[15] = system: UACC-257 melanoma
[16] = system: HCT-15 colon
[17] = system: NCI-H460 lung
[18] = system: A549 NSCLC
[19] = system: KM12 colon
[20] = system: T-47D breast
[21] = system: MDA-MB-231 breast
[22] = system: U251 CNS
[23] = system: NCI-H226 lung
[24] = system: SK-MEL-2 melanoma
[25] = system: HS 578T breast
[26] = system: OVCAR-3 ovarian
[27] = system: SK-OV-3 ovarian
[28] = system: LOX IMVI melanoma
[29] = system: EKVX NSCLC
[30] = system: A498 renal
[31] = system: HOP-92 NSCLC
[32] = system: ACHN renal
[33] = system: SF-268 CNS
[34] = system: SK-MEL-28 melanoma
[35] = system: IGROV1 ovarian
[36] = system: SR leukemia
[37] = system: 786-0 renal
[38] = system: SW-620 colon
[39] = system: SK-MEL-5 melanoma
[40] = system: NCI-H522 lung
[41] = system: HCC-2998 colon
[42] = system: PC-3 prostate
[43] = system: BT-549 breast
[44] = system: OVCAR-8 ovarian
[45] = system: HOP-62 NSCLC
[46] = system: OVCAR-4 ovarian
[47] = system: HT29 colon
[48] = system: TK-10 renal
[49] = system: SN12C renal
[50] = system: MALME-3M melanoma
[51] = system: SNB-75 CNS
[52] = system: NCI/ADR-RES ovarian
[53] = system: CCRF-CEM leukemia
[54] = system: OVCAR-5 ovarian
[55] = system: NCI-H23 lung
[56] = system: MCF7 breast
[57] = system: SF-295 CNS
[58] = system: SF-539 CNS
[59] = system: RPMI-8226 leukemia

With `N#C/C(=C\c1ccc(N(c2ccccc2)c2ccccc2)cc1)C(N)=O` the GI50 [1] was 43.9 µM, the TGI [1] was > 100 µM and the GI50 [2] was 15.3 µM. For the same molecule, the TGI [2] was > 100 µM, the GI50 [3] was 0.308 µM and the TGI [3] was 1.37 µM. For the same molecule, the GI50 [4] was 0.145 µM, the TGI [4] was 0.351 µM and the GI50 [5] was 25.7 µM. For the same molecule, the TGI [5] was > 100 µM, the GI50 [6] was 0.308 µM and the TGI [6] was 2.48 µM. For the same molecule, the GI50 [7] was > 100 µM, the TGI [7] was > 100 µM and the GI50 [8] was 1.33 µM. For the same molecule, the TGI [8] was 20.3 µM, the GI50 [9] was > 100 µM and the TGI [9] was > 100 µM. For the same molecule, the GI50 [10] was 0.758 µM, the TGI [10] was > 100 µM and the GI50 [11] was > 100 µM. The TGI [11] was > 100 µM, the GI50 [12] was 37.3 µM and the TGI [12] was > 100 µM. For the same molecule, the GI50 [13] was > 100 µM, the TGI [13] was > 100 µM and the GI50 [14] was > 100 µM. For the same molecule, the TGI [14] was > 100 µM, the GI50 [15] was 0.839 µM and the TGI [15] was 3.53 µM. The GI50 [16] was > 100 µM, the TGI [16] was > 100 µM and the GI50 [17] was 1.74 µM. For the same molecule, the TGI [17] was > 67.2 µM, the GI50 [18] was 22.7 µM and the TGI [18] was > 100 µM. The GI50 [19] was > 100 µM, the TGI [19] was > 100 µM and the GI50 [20] was 1.06 µM. The TGI [20] was 5.27 µM, the GI50 [21] was > 72.5 µM and the TGI [21] was > 100 µM. For the same molecule, the GI50 [22] was 2.99 µM, the TGI [22] was > 100 µM and the GI50 [23] was 0.24 µM. The TGI [23] was 0.989 µM, the GI50 [24] was 29 µM and the TGI [24] was > 100 µM. The GI50 [25] was 38.4 µM, the TGI [25] was > 100 µM and the GI50 [26] was 4.6 µM. For the same molecule, the TGI [26] was > 95.9 µM, the GI50 [27] was 25.3 µM and the TGI [27] was > 100 µM. For the same molecule, the GI50 [28] was > 89 µM, the TGI [28] was > 100 µM and the GI50 [29] was > 100 µM. The TGI [29] was > 100 µM, the GI50 [30] was 1.11 µM and the TGI [30] was 2.61 µM. The GI50 [31] was 29.7 µM, the TGI [31] was > 92.4 µM and the GI50 [32] was 64.4 µM. The TGI [32] was > 100 µM, the GI50 [33] was 67.3 µM and the TGI [33] was > 100 µM. For the same molecule, the GI50 [34] was > 100 µM, the TGI [34] was > 100 µM and the GI50 [35] was 0.946 µM. The TGI [35] was 4.64 µM, the GI50 [36] was > 100 µM and the TGI [36] was > 100 µM. The GI50 [37] was 18 µM, the TGI [37] was > 92.1 µM and the GI50 [38] was 8.69 µM. The TGI [38] was > 100 µM, the GI50 [39] was 11 µM and the TGI [39] was > 100 µM. For the same molecule, the GI50 [40] was > 78.9 µM, the TGI [40] was > 100 µM and the GI50 [41] was > 64.1 µM. For the same molecule, the TGI [41] was > 100 µM, the GI50 [42] was > 69.8 µM and the TGI [42] was > 100 µM. For the same molecule, the GI50 [43] was > 100 µM, the TGI [43] was > 100 µM and the GI50 [44] was 35.1 µM. For the same molecule, the TGI [44] was > 100 µM, the GI50 [45] was 3.9 µM and the TGI [45] was 31.5 µM. The GI50 [46] was 2.28 µM, the TGI [46] was 16.1 µM and the GI50 [47] was 16.9 µM. For the same molecule, the TGI [47] was > 100 µM, the GI50 [48] was 0.797 µM and the TGI [48] was 3.92 µM. For the same molecule, the GI50 [49] was > 77.1 µM, the TGI [49] was > 100 µM and the GI50 [50] was 42.9 µM. The TGI [50] was > 100 µM, the GI50 [51] was 19.8 µM and the TGI [51] was > 93.9 µM. The GI50 [52] was 21.6 µM, the TGI [52] was > 100 µM and the GI50 [53] was > 100 µM. The TGI [53] was > 100 µM, the GI50 [54] was 1.12 µM and the TGI [54] was 3.07 µM. For the same molecule, the GI50 [55] was 15.3 µM, the TGI [55] was > 100 µM and the GI50 [56] was 0.661 µM. For the same molecule, the TGI [56] was > 100 µM, the GI50 [57] was 7.24 µM and the TGI [57] was > 100 µM. For the same molecule, the GI50 [58] was 68 µM, the TGI [58] was > 100 µM and the GI50 [59] was 12.4 µM. For the same molecule, the TGI [59] was > 100 µM.
Molecule `O=C(N/N=C/c1ccc(B(O)O)s1)c1[nH]c2ccc(Br)cc2c1-c1ccccc1` has a GI50 [1] of 0.354 µM, a TGI [1] of 16.3 µM and a GI50 [2] of 0.231 µM. The TGI [2] was 0.515 µM, the GI50 [3] was 0.395 µM and the TGI [3] was 5.92 µM. It also gave a GI50 [4] of 0.235 µM, a TGI [4] of 0.572 µM and a GI50 [5] of 1.05 µM. It also gave a TGI [5] of 14.1 µM, a GI50 [6] of 0.444 µM and a TGI [6] of 13.6 µM. The GI50 [7] was 0.23 µM, the TGI [7] was 0.659 µM and the GI50 [8] was 0.343 µM. The TGI [8] was 13.6 µM, the GI50 [9] was 0.371 µM and the TGI [9] was 12.7 µM. It also gave a GI50 [10] of 0.331 µM, a TGI [10] of 4.34 µM and a GI50 [11] of 0.459 µM. For the same molecule, the TGI [11] was 14.4 µM, the GI50 [12] was 0.387 µM and the TGI [12] was 13.5 µM. It also gave a GI50 [13] of 0.25 µM, a TGI [13] of 0.647 µM and a GI50 [14] of 0.367 µM. It also gave a TGI [14] of 11.6 µM, a GI50 [15] of 1.25 µM and a TGI [15] of 18.2 µM. It also gave a GI50 [16] of 0.34 µM, a TGI [16] of 8.83 µM and a GI50 [17] of 0.363 µM. It also gave a TGI [17] of 4.1 µM, a GI50 [18] of 0.423 µM and a TGI [18] of 13.4 µM. The GI50 [19] was 0.342 µM, the TGI [19] was 4.9 µM and the GI50 [20] was 3.74 µM. For the same molecule, the TGI [20] was 22.7 µM, the GI50 [21] was 0.339 µM and the TGI [21] was 11.3 µM. For the same molecule, the GI50 [22] was 0.311 µM, the TGI [22] was 4.6 µM and the GI50 [23] was 0.511 µM. The TGI [23] was 5.43 µM, the GI50 [24] was 0.432 µM and the TGI [24] was 14 µM. It also gave a GI50 [25] of 0.296 µM, a TGI [25] of 3.44 µM and a GI50 [26] of 0.302 µM. The TGI [26] was 2.96 µM, the GI50 [27] was 0.691 µM and the TGI [27] was 15 µM. For the same molecule, the GI50 [28] was 0.35 µM, the TGI [28] was 6.22 µM and the GI50 [29] was 0.425 µM. For the same molecule, the TGI [29] was 11.2 µM, the GI50 [30] was 8.5 µM and the TGI [30] was 21.6 µM. The GI50 [31] was 0.974 µM, the TGI [31] was 6.34 µM and the GI50 [32] was 0.512 µM. The TGI [32] was 14 µM, the GI50 [33] was 0.515 µM and the TGI [33] was 10.2 µM. The GI50 [34] was 0.856 µM, the TGI [34] was 16.7 µM and the GI50 [35] was 0.403 µM. The TGI [35] was 13.1 µM, the GI50 [36] was 0.364 µM and the TGI [36] was 14.3 µM. It also gave a GI50 [37] of 0.411 µM, a TGI [37] of 8.28 µM and a GI50 [38] of 0.395 µM. For the same molecule, the TGI [38] was 14.8 µM, the GI50 [39] was 0.215 µM and the TGI [39] was 0.497 µM. For the same molecule, the GI50 [40] was 0.208 µM, the TGI [40] was 0.549 µM and the GI50 [41] was 0.364 µM. For the same molecule, the TGI [41] was 5.81 µM, the GI50 [42] was 0.476 µM and the TGI [42] was 16.5 µM. The GI50 [43] was 0.348 µM, the TGI [43] was 1.02 µM and the GI50 [44] was 0.272 µM. It also gave a TGI [44] of 0.816 µM, a GI50 [45] of 0.557 µM and a TGI [45] of 11.8 µM. The GI50 [46] was 3.56 µM, the TGI [46] was 24.1 µM and the GI50 [47] was 0.29 µM. For the same molecule, the TGI [47] was 0.992 µM, the GI50 [48] was 7.96 µM and the TGI [48] was 22.9 µM. The GI50 [49] was 0.374 µM, the TGI [49] was 8.11 µM and the GI50 [50] was 0.512 µM. The TGI [50] was 21.1 µM, the GI50 [51] was 0.316 µM and the TGI [51] was 5.63 µM. For the same molecule, the GI50 [52] was 0.238 µM, the TGI [52] was 0.587 µM and the GI50 [53] was 0.366 µM. It also gave a TGI [53] of 12.6 µM, a GI50 [54] of 0.39 µM and a TGI [54] of 13.9 µM. The GI50 [55] was 0.378 µM, the TGI [55] was 13.2 µM and the GI50 [56] was 0.333 µM. For the same molecule, the TGI [56] was 10.5 µM, the GI50 [57] was 0.299 µM and the TGI [57] was 5.38 µM. The GI50 [58] was 0.227 µM, the TGI [58] was 0.551 µM and the GI50 [59] was 0.521 µM. The TGI [59] was > 52.3 µM.
